Experimental data as given in patent publication US10794932B2, “Biosensor for the detection of a biological target, and method for manufacturing the same” (The Governing Council of The University of Toronto, priority 2016, dated 2020).

Target: T1, 'rmTLR1 and 2' mixture (Mus musculus, UniProt Q9EPQ1+Q9QUN7)
T1 construct: Fc (chimera); purchased R&D Systems RDS1476TR050 + RDS1530TR050
T1 sequence (Q9EPQ1 26-582 limits assumed): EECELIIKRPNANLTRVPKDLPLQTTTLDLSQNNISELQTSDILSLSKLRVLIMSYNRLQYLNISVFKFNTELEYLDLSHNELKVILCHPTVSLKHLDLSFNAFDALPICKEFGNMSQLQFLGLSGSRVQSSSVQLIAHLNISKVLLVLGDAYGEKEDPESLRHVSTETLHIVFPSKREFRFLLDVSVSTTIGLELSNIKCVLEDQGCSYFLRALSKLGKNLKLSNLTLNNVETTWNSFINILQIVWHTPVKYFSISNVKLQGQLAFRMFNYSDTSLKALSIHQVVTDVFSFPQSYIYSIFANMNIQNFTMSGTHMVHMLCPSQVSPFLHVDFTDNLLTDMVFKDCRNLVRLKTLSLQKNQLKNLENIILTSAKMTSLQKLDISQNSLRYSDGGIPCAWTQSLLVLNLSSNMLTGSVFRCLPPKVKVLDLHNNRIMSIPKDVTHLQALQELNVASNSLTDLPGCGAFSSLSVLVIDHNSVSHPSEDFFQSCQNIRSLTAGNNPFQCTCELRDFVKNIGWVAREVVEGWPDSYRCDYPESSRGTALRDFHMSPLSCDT
T1 sequence (Q9QUN7 25-587 limits assumed): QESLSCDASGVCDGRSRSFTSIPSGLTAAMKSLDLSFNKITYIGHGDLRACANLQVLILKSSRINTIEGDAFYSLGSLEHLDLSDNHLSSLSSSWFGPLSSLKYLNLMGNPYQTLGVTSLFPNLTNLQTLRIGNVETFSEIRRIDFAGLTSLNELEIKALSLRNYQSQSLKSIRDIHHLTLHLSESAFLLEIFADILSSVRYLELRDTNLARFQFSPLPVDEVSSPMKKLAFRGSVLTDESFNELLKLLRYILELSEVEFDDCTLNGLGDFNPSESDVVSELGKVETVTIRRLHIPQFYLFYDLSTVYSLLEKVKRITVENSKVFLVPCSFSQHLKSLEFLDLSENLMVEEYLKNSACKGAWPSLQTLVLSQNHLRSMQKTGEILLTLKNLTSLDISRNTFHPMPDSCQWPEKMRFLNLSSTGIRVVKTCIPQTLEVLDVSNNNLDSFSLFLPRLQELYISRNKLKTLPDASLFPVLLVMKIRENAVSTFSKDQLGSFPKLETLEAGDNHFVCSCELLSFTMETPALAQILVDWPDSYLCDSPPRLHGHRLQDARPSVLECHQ
Test: Label-free hybridized 'TLR1 and 2' sensor, EIS detection of Pam3CSK4 (Example 7)
Type: binding
Settings: for delta Rct % / Rct: 'TLR1 and 2' sensor; for delta Rct %: 20 minutes; for Rct: before immersion 5472
Protocol: TLR sensors were prepared using fresh, cleaned gold electrodes. The electrodes were immersed in a 2 mM 1-lipoic acid n-hydroxysuccinimide ester (LPA) ethanol solution for 48 hours at 277 K. The electrodes were then rinsed thoroughly using absolute ethanol and blown dry under nitrogen before incubation in 200 μg/ml rmTLR1, 200 μg/ml rmTLR2 and 200 μg/ml ‘rmTLR1 and 2’ mixture for 72 hours at 277 K. The rmTLR1 and 2 mixture was prepared by mixing 200 μg/ml rmTLR1 and 200 μg/ml rmTLR2 with a volume ratio of 1:1. The final concentration of each component was 100 μg/ml and the total concentration of the combined TLR protein content was 200 μg/ml. Following the supplier's recommended conditions, all TLRs were prepared in PBS buffer (pH˜7.4). The electrodes were rinsed with an excess volume of Milli-Q water and blown dry under nitrogen. An ethanolamine-tris buffer solution was prepared by dissolving 1.2 g of ethanolamine and 0.121 g of Tris base in 20 mL of water, the pH was adjusted to 8.4 using hydrochloric acid. TLR-immobilized electrodes were incubated in the ethanolamine solution for one hour at room temperature in order to block any remaining unreacted LPA amine sites. The fabricated sensors with immobilized, standalone rmTLR3, rmTLR4/MD-2 and rmTLR5, used for the selectivity test, were prepared using the same protocol described above.
Pam3CSK4 was dissolved in 10 mM HEPES aqueous buffer at pH˜7.4. The blocked rmTLR biosensors were incubated in Pam3CSK4 at various concentrations for 20 minutes. The electrodes were always washed thoroughly with same HEPES buffer (pH˜7.4) after the incubation.
All electrochemical measurements were carried out using a cell with a three-electrode configuration in an enclosed Faraday cage. CV and EIS measurements were completed using a CHI-660b potentiostat (CH Instruments, Austin, Tex.). rmTLR-modified gold electrodes and platinum (Pt) wire were used as the working electrode and the counter electrode, respectively. A reference electrode (Ag/AgCl/3.0M KCl) and a salt bridge, filled with an agar and 1M KNO3 aqueous solution, were inserted to minimize the diffusion of chloride ions into the electrolyte solution. The agar solution was prepared by dissolving 2.0 grams of agar and 10.1 g KNOB in 100 mL of water. The CV and EIS electrolyte was made in a 10 mM HEPES aqueous buffer at pH˜7.4, which consisted of a 5 mM K4Fe(CN)6/5 mM K3Fe(CN)6 as a redox couple with 1M of NaClO4 as the supporting electrolyte. For consistency, the electrochemical measurements were carried out with open-circuit potentials. EIS experiments were conducted in the frequency range of 100,000 to 0.1 Hz with an amplitude of 5 mV. The experimental EIS curves were evaluated to determine the film resistance using ZSimpWin 2.0 software.

With Pam3CSK4 the “delta Rct %” value (5 μM) was 37±11%, the “delta Rct %” value (25 μM) was 125±19% and the “delta Rct %” value (50 μM) was 199±26%. For the same substance, the Rct (after 5 μM) was 5688 Ω · cm^2, the Rct (after 10 μM) was 7147 Ω · cm^2 and the Rct (after 25 μM) was 11260 Ω · cm^2. For the same substance, the Rct (after 50 μM) was 15620 Ω · cm^2 and the limit of detection (hybridized 'TLR1 and 2' sensor) was 5 µM.
